Test results: patent US6566120B2 (Massachusetts Institute of Technology, priority 1995, dated 2003)
Like-named read-outs stand apart in the source and are kept apart here.

How the values were obtained:
Actinomadura hydroxylase [1] = experiment: Effect of various factors on conversion of compactin to pravastatin in cell free extracts of Actinomadura; type: biochemical, Actinomadura ATCC 55678; conditions: for CP: compactin remaining
Actinomadura hydroxylase [2] = experiment: Conversion of compactin to pravastatin by cell free extracts of Actinomadura: NADH versus NADPH as H+ donor; type: biochemical, Actinomadura ATCC 55678; conditions: for PV: 160 μl cell free extract, 0.26 mM H+ donor, 0.23 mM compactin, 30° C.
Protocol: The HPLC conditions used were a 3 μm Lichrospher 100 RP-18 column (obtained from EM Separations Technology, Gibbstown, N.J.); Mobile Phase A: 2.5 g NaH2PO4 in 800 ml Milli-Q water, add 200 ml acetonitrile and 110 ml methanol, adjust pH to 2.5 with 85% H3PO4; Mobile Phase B: mixture of 200 ml water, 800 ml acetonitrile, 110 ml methanol and 1 ml 85% H3PO4; a 10 μl injection volume; a 1 ml/min. flow rate; and detection at UV 237 nm. The gradient table was: A cell free extract of Actinomadura was obtained by growing a 150 ml culture of Actinomadura ATCC 55678 for 2 days in YM medium as described in Example 1. The cells were harvested by centrifugation at 15,000 rpm for 30 min. […] Cells were harvested by centrifugation, washed twice with cold water and once with buffer A ([…] Tris-HCl buffer, pH 7.4, supplemented with 20% glycerol and 2 mM DTT). The cells were resuspended in 5 ml buffer A and stored at −80° C. The cell suspension was later thawed and disrupted in a French Press. The homogenate was centrifugated at 30,000 rpm for 60 min. The supernatant was stored at −80° C. as cell free extract. […] A control of buffer A without cell free extract was included. The amount of pravastatin was measured by HPLC as described in Example 1.

[3] = target: T1, 3-hydroxy-3-methylglutaryl (HMG)-CoA reductase (Homo sapiens, UniProt P04035); conditions: have been reported; cited from earlier work
T1 sequence (P04035 1-888): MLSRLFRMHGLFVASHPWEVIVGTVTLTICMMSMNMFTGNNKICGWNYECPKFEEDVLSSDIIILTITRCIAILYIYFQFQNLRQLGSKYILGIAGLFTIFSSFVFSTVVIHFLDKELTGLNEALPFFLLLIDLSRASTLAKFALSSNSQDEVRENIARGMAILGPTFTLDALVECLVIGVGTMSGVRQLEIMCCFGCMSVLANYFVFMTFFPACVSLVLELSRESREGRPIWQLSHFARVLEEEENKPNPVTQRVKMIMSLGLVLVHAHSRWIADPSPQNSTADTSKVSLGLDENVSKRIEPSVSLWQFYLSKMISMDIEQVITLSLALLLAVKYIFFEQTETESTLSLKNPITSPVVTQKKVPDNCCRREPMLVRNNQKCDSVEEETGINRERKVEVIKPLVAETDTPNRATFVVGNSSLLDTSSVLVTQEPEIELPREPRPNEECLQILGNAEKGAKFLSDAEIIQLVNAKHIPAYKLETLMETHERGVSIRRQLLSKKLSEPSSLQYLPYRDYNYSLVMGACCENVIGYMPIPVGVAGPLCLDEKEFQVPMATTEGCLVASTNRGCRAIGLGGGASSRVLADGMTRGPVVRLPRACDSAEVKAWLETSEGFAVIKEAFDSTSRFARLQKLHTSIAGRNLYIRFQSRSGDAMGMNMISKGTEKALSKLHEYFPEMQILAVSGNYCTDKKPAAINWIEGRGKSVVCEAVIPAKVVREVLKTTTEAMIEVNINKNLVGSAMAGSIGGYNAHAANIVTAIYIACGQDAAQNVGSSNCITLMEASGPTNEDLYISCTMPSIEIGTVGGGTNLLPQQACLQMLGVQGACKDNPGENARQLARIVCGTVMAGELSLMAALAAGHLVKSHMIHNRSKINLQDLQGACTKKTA

blood cholesterol level = experiment: Treating high blood cholesterol levels; type: in vivo; conditions: human patient; 20 mg orally, pill, twice a day, 3 months
Protocol: This example illustrates a method for lowering the cholesterol level in a human with pravastatin derived from an Actinomadura hydroxylase that converts compactin to pravastatin. The patient is given 20 mg of this pravastatin orally, in the form of a pill, twice a day. Administration is carried out for a period of 3 months.

fungi = conditions: Serizawa et al., J. Antibiotics 36:887-891 (1983); cited from earlier work
strain 2966 = experiment: Antibiotic sensitivity of strain 2966 (taxonomic description); type: cell-based, Actinomadura
Description: Description of strain 2966: Cell wall analysis: Whole cell hydrolysates contain meso-diaminopimelic acid (DAP) and madurose. Morphology: Strain 2966 produces an extensively branched, non-fragmenting and dense substrate mycelium. The aerial mycelium is very well developed on yeast malt extract agar, oatmeal agar, N-Z Amine with soluble starch and glucose agar and absent on ISP-4, ISP-5 and ISP-7 media. Spore chains noticeably exceed the diameter of the hyphae which is characteristic for Actinomadura strains and distinguish them from Streptomyces. The presence of meso-DAP is another distinguishing feature. Spores of strain 2966 have a round shape unlike glycomyces species. No special morphological structures were observed either on the substrate mycelium or aerial mycelium. The color of the aerial mycelium is white and yellow-brown for substrate mycelium. No soluble or melanin pigments are formed. Mycelium is not sensitive to pH changes. Carbon source utilization is very poor for glucose, arabinose, D-fructose, D-mannitol, raffinose, rhamnose, sucrose, xylose, galactose and there is only a trace of growth with i-inositol, salicin or on control agar. […] Of the meso-DAP-containing actinomycetes, only Actinomadura species have non-fragmenting mycelium and display the same type of aerial mycelium formation and sporulation as strain 2966.

[4] = Actinomadura cell free extracts, alone or in combination
[5] = Table 10, CFE Uninduced, combination MgCl2 2.4 mM, ATP 1.9 mM, ascb 12 mM, ATP alone 3.8 mM, ascb alone 23 mM
[6] = Table 9, 60 min, 0.72 mM NADPH, 0.2 mM compactin, 2.4 mM MgCl2, 0.09 mM FeSO4, 0.1 mM FeCl3, 1.9 mM ATP and 12 mM ascorbic acid
[7] = Table 9, 60 min, 0.72 mM NADPH, 0.2 mM compactin, same factor concentrations

With `Nc1ncnc2c1ncn2[C@@H]1O[C@H](COP(=O)(O)OP(=O)(O)OP(=O)(O)O)[C@@H](O)[C@H]1O` [ATP] the “stimulation of the enzymatic activity of the agent (conversion of compactin to pravastatin)” value (“stimulation” for short) (Actinomadura hydroxylase [1]; [4]) was “stimulate conversion of compactin to pravastatin”, the “PV (μg/min/g)” value (Actinomadura hydroxylase [1]; [5]) was 17 µg/min/g and the “PV (μg/ml)” value (Actinomadura hydroxylase [1]; [5]) was 7.5 µg/mL.
In the case of `[Cl-].[Cl-].[Co+2]` [CoCl2], the “stimulation” value (Actinomadura hydroxylase [1]) is reported as “do not stimulate enzymatic activity”.
With `O=S(=O)([O-])[O-].[Cu+2]` [CuSo4] the “stimulation” value (Actinomadura hydroxylase [1]; [4]) was “do not stimulate enzymatic activity”.
For `Cc1cc2nc3c(=O)[nH]c(=O)nc-3n(C[C@H](O)[C@H](O)[C@H](O)COP(=O)(O)OP(=O)(O)OC[C@H]3O[C@@H](n4cnc5c(N)ncnc54)[C@H](O)[C@@H]3O)c2cc1C` [FAD], the “stimulation” value (Actinomadura hydroxylase [1]) was “do not stimulate enzymatic activity”.
With `Cc1cc2nc3c(=O)[nH]c(=O)nc-3n(C[C@H](O)[C@H](O)[C@H](O)COP(=O)(O)O)c2cc1C` [FMN] the “stimulation” value (Actinomadura hydroxylase [1]) was “do not stimulate enzymatic activity”.
For `[Cl][Fe]([Cl])[Cl]` [FeCl3], the “PV (μg/ml)” value (Actinomadura hydroxylase [1]; [6]) was 3.3 µg/mL, the “PV (μg/min/g)” value (Actinomadura hydroxylase [1]; [7]) was 6.6 µg/min/g and the “CP” value (Actinomadura hydroxylase [1]; [7]) was 57.9 µg/mL.
For `O=S(=O)([O-])[O-].[Fe+2]` [FeSO4], the “PV (μg/ml)” value (Actinomadura hydroxylase [1]; [6]) was 2.3 µg/mL, the “PV (μg/min/g)” value (Actinomadura hydroxylase [1]; [7]) was 6.4 µg/min/g and the “CP” value (Actinomadura hydroxylase [1]; [7]) was 64.3 µg/mL.
With `[Cl-].[Cl-].[Mg+2]` [MgCl2] the “stimulation” value (Actinomadura hydroxylase [1]; [4]) was “stimulate conversion of compactin to pravastatin”, the “PV (μg/ml)” value (Actinomadura hydroxylase [1]; [6]) was 4.4 µg/mL and the “PV (μg/min/g)” value (Actinomadura hydroxylase [1]; [7]) was 8.7 µg/min/g. The “CP” value (Actinomadura hydroxylase [1]; [7]) was 60.2 µg/mL.
With `NC(=O)C1=CN([C@@H]2O[C@H](COP(=O)(O)OP(=O)(O)OC[C@H]3O[C@@H](n4cnc5c(N)ncnc54)[C@H](O)[C@@H]3O)[C@@H](O)[C@H]2O)C=CC1` [NADH] the “PV” value (Actinomadura hydroxylase [2]; 5 hours) was 2.8 µg/mL and the “PV” value (Actinomadura hydroxylase [2]; 21 hours) was 2.8 µg/mL.
With `NC(=O)C1=CN([C@@H]2O[C@H](COP(=O)(O)OP(=O)(O)OC[C@H]3O[C@@H](n4cnc5c(N)ncnc54)[C@H](OP(=O)(O)O)[C@@H]3O)[C@@H](O)[C@H]2O)C=CC1` [NADPH] the “PV” value (Actinomadura hydroxylase [2]; 6 hours) was 12.8 µg/mL, the “PV” value (Actinomadura hydroxylase [2]; 21 hours) was 11.9 µg/mL and the “enzymatic conversion of compactin to pravastatin, comparison of H+ donors” value (Actinomadura hydroxylase [2]; cell free extracts) was “better with NADPH as a H^+ donor than with NADH”.
For `[Cl][Ni][Cl]` [NiCl2], the “stimulation” value (Actinomadura hydroxylase [1]; [4]) was “do not stimulate enzymatic activity”.
For `O=C1O[C@H]([C@@H](O)CO)C(O)=C1O` [ascb, ascorbic acid], the “stimulation” value (Actinomadura hydroxylase [1]; [4]) was “stimulate conversion of compactin to pravastatin”, the “PV (μg/min/g)” value (Actinomadura hydroxylase [1]; [5]) was 18 µg/min/g and the “PV (μg/ml)” value (Actinomadura hydroxylase [1]; [5]) was 8.3 µg/mL.
For `CC[C@H](C)C(=O)O[C@H]1C[C@H](O)C=C2C=C[C@H](C)[C@H](CC[C@@H](O)C[C@@H](O)CC(=O)O)[C@H]21` [pravastatin], the “inhibition of HMG-CoA reductase” value [3] is listed as “competitive inhibitors” and the blood cholesterol level (blood cholesterol level) is listed as “reduction of the patient's blood cholesterol level”.
With `O=C(O)CCC(=O)C(=O)O` [∝-ketoglutarate] the “stimulation” value (Actinomadura hydroxylase [1]; [4]) was “do not stimulate enzymatic activity”.
For compactin, the activity against fungi (fungi) is listed as “anti-fungal activity”.
In the case of neomycin, the “sensitivity of strain 2966 to antibiotic” value (strain 2966) is reported as “inhibited”.
For penicillin, the “sensitivity of strain 2966 to antibiotic” value (strain 2966) was “resistance”.
